Experimental data from PubChem BioAssay AID1645866 (Buhrlage Lab, Dana-Farber Cancer Institute and Novartis …, 2021).
Activity calls are given as the source filed them.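 The calls were made as follows: active = in confirmatory dose-response testing, peak deubiquitinase inhibition of 30% or more; inactive = the rest.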

What follows are molecules tested against Ubiquitin carboxyl-terminal hydrolase 28 (Homo sapiens) (UniProt Q96RU2) (assay: Ubiquitin-specific peptidase 28 DUB inhibitors, biochemical concentration-dependence assay, validation of primary screening hits (AID 1645866)). Conditions: purified USP28, ubiquitin-rhodamine fluorescence, 30 min.
Ubiquitin carboxyl-terminal hydrolase 28 (Homo sapiens), sequence (Q96RU2 whole entry, looked up): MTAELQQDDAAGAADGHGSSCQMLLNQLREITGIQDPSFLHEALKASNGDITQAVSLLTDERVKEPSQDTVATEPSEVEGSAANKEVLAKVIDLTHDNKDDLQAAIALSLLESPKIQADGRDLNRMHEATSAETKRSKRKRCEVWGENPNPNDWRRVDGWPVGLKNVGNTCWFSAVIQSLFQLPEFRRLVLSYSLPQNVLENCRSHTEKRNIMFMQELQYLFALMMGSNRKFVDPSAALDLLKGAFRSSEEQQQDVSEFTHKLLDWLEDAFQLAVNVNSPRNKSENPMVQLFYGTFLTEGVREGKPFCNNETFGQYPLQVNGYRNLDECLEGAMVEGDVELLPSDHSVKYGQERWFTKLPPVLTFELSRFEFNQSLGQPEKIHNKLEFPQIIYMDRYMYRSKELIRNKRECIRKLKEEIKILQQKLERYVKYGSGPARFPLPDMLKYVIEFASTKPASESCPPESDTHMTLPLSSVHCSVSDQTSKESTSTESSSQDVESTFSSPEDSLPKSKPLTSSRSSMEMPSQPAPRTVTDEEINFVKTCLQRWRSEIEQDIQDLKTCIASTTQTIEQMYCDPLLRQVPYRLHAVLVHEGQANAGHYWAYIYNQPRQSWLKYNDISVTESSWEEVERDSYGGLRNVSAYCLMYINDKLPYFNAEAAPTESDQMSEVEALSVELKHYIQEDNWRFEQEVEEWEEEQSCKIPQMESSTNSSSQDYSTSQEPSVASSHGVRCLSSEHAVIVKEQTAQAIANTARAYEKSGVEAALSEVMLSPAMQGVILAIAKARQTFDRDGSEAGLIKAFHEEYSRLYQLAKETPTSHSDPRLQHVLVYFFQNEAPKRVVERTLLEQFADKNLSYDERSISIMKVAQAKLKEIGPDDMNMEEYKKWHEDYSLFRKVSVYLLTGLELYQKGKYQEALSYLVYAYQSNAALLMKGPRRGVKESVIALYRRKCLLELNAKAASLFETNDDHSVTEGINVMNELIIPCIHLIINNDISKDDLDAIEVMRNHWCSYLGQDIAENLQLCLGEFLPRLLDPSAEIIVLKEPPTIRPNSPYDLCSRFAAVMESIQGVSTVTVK
For `O=S(=O)(Cc1nnc(-c2ccccc2C(F)(F)F)o1)c1ccc(Cl)cc1`, the IC50 was > 50 µM (inactive). For `CCn1ccc2c(cc(C(=O)Nc3cc(F)ccc3F)n2C)c1=O`, the IC50 was 2.22 µM. `O=C(Cn1c(=O)n(-c2ccccc2)c(=O)c2ccc(C(=O)NCc3ccc4c(c3)OCO4)cc21)NCCC1=CCCCC1` was tested, and the IC50 was 15.7 µM. `Cc1nc2sc(C(=O)Nc3ccccc3Br)c(N)c2c(C)c1C` was tested, and the IC50 was 2.01 µM. `COC1C(O)=C2C(=O)O/C(C)=C/C=C/C=C/C=C/CC(c3ccccc3)NC(=O)/C=C/C=C/C=C\C=C\C2(C)C1O` (stereo not given) was tested, and the IC50 was > 50 µM (inactive). For `O=C(Cn1cnc(-c2noc(-c3ccncc3)n2)c1)N1CCN(c2ccccc2F)CC1`, the IC50 was > 50 µM (inactive). For `Cc1nc2ccccc2nc1SCC(=O)Nc1ccc2c(c1)OCO2`, the IC50 was 25.1 µM. For `COc1ccc(NC2c3ccccc3C(=O)N2c2ccccn2)cc1` (stereo not given), the IC50 was > 50 µM (inactive). `Cc1cc(C)nc(-n2nc(C)c3c2NC(=O)CSC3c2ccccc2F)n1` (stereo not given) was tested, and the IC50 was 34.3 µM. In the case of `COCCCn1c(C(=O)Nc2ccccc2OC)cc2c(=O)n3ccccc3nc21`, the IC50 is reported as 29.9 µM. For `COc1ccc(NC(=O)COc2ccc3ccc(=O)oc3c2)cc1`, the IC50 was 31.1 µM. `COc1ccc(S(=O)(=O)N2CCc3ccccc32)cc1C(=O)Nc1ccc2[nH]c(=O)[nH]c2c1` gave an IC50 of 9.13 µM. In the case of `COC(=O)C1C(c2ccc(OC)cc2)C2(C(=O)c3ccccc3C2=O)C2C=Cc3ccccc3N12` (stereo not given), the IC50 is reported as > 50 µM (inactive). In the case of `COCC(=O)Nc1cc(F)c2nc(N3CCOCC3)ccc2c1`, the IC50 is reported as > 50 µM (inactive). `COc1ccccc1N1CCN(C(=O)c2ccc3c(c2)N(Cc2cc(C)ccc2C)C(=O)c2ccccc2S3=O)CC1` (stereo not given) showed an IC50 of 29.7 µM. `Cc1ccc(C(=O)Nc2cc3c4c(c2)CC(=O)N4CCC3)cc1` showed an IC50 of 8.27 µM. `O=C(Nc1oc2ccccc2c(=O)c1-c1ccc2c(c1)OCO2)C1CCCCC1` showed an IC50 of 33.1 µM. With `CC(C)(C)C(=O)NC(c1ccccc1)c1nnc(N2CCOCC2)o1` (stereo not given) the IC50 was > 50 µM (inactive). Work on `O=[N+]([O-])c1ccc(N2CCN(c3ncnc4c3[nH]c3ccc(F)cc34)CC2)cc1` yielded an IC50 of 0.225 µM. For `O=C(COc1ccc(S(=O)(=O)N2CCOCC2)cc1)N1CCC(Cc2ccccc2)CC1`, the IC50 was 12.2 µM. For `O=C(COC(=O)c1ccc2ncsc2c1)Nc1ccccc1F`, the IC50 was > 50 µM (inactive). `NC(=O)c1ccc(NC(=O)Cc2cc(-c3ccc(Cl)cc3)on2)cc1` was tested, and the IC50 was > 50 µM (inactive). With `COc1cc([C@@H]2c3cc4c(cc3C[C@@H]3COC(=O)[C@H]32)OCO4)cc(OC)c1OC` the IC50 was 18.7 µM. In the case of `Cc1ccc(-c2noc(-c3nnc(SCC(=O)NC4CCCC4)n3C)n2)cc1`, the IC50 is reported as “inactive”. For `Cc1c(CC(=O)Nc2nn[nH]n2)c(=O)oc2cc3c(cc12)CCC1(CCCCC1)O3`, the IC50 was > 50 µM (inactive). For `CCOc1ccc2c(c1)c(=O)c(C(=O)c1ccccc1)cn2CC(=O)Nc1ccccc1`, the IC50 was 9.83 µM. `COc1ccc(C2C(C(=O)Nc3ccccc3OC)=C(C)Nc3nnnn32)cc1Br` (stereo not given) showed an IC50 of 23.2 µM. In the case of `O=C(Cc1c[nH]c2ccccc12)Nc1nc2ccccc2s1`, the IC50 is reported as 21.2 µM. `CCN1C(SCc2ccc(F)cc2)=NS(=O)(=O)c2ccccc21` showed an IC50 of 26.7 µM. In the case of `COc1cc2cc3c(c(O)c2c(O)c1-c1c(OC)cc2cc4c(c(O)c2c1O)C(=O)OC1CC(C)OC41)C(=O)OC1CC(C)OC31` (stereo not given), the IC50 is reported as > 50 µM (inactive). Work on `CC1CS(=O)(=O)N(c2ccc(C(=O)Nc3ccc4c(c3)OCCO4)cc2)C1=O` (stereo not given) yielded an IC50 of 7.25 µM. With `Cc1ccc(Cn2nnc(-c3ccccc3Cl)n2)cc1` the IC50 was 13.9 µM. `O=C(CSc1cn(Cc2ccccc2)c2ccccc12)Nc1ccc2c(c1)OCCO2` was tested, and the IC50 was 17.2 µM. `Cc1cccc(OCCn2c(CCNC(=O)C3CCCCC3)nc3ccccc32)c1` showed an IC50 of 21.6 µM. Molecule `CC(c1ccccc1)n1c(-c2ccc(F)cc2)nc2c(c(=O)c3ccccc3n2C)c1=O` (stereo not given) has an IC50 of 1.85 µM. Work on `CCOc1ccc(NC(=O)c2nc3c(=O)[nH]c4cc(C)ccc4n3n2)cc1` yielded an IC50 of 47.5 µM. Molecule `Cc1ccc(C(=O)Nc2ccc3c(c2)C(=O)N(C)c2ccccc2O3)cc1C` has an IC50 of 2.75 µM. Work on `FC(F)(F)c1cccc(Nc2nnc(-c3cccnc3)s2)c1` yielded an IC50 of 12.1 µM. In the case of `CC(OC(=O)c1ccc2c(c1)OCCO2)C(=O)NCC1CCCCC1` (stereo not given), the IC50 is reported as 26.1 µM. For `Cc1ccc(-n2c(=O)[nH]c3c(C(N)=O)nc(-c4cccnc4)nc32)cc1`, the IC50 was 6.87 µM. `Cc1ccc(C(=O)NCC(=O)Nc2nc3ccccc3[nH]2)c(C)c1` was tested, and the IC50 was 24.6 µM. `Cc1ccc(-n2cc(C(=O)NCc3cccnc3)nn2)cc1C` was tested, and the IC50 was 16.6 µM. In the case of `O=S(=O)(O)c1cc2cc3ccccc3cc2[nH]1`, the IC50 is reported as > 50 µM (inactive). `CN(c1ccccc1)c1nc(=O)n(CC(=O)Nc2ccc3c(c2)OCCO3)c2ccccc12` was tested, and the IC50 was 28.2 µM. With `COc1cccc2c1NC(=O)C21CCN(C(=O)Nc2cccc(C)c2)CC1` the IC50 was 14.6 µM. `Clc1cncc(Oc2nc(-c3cccnc3)nc3ccccc23)c1` was tested, and the IC50 was 9.69 µM. In the case of `COc1ccc(-c2cc(-c3nnc(CSc4nc5ccccc5n4C)o3)c3ccccc3n2)cc1OC`, the IC50 is reported as > 50 µM (inactive). With `Cc1cccc(NC(=O)Cn2c(-c3cnccn3)nc(C)c(C)c2=O)c1C` the IC50 was > 50 µM (inactive). Molecule `CC(=O)c1cc2c(=O)c3c(C(=O)O)c(O)c(O)cc3oc2c(C(C)=O)c1-c1coc2cc(O)c(O)c(C(=O)O)c2c1=O` has an IC50 of 1.77 µM. In the case of `Cc1cccc(NC(=O)CSc2nnc(-c3n[nH]c4c3CCC4)n2N)c1`, the IC50 is reported as 26.6 µM.
